pIC50: −log10 of the molar value.
test system: AGS cells (KRAS^G12D); experiment: Detection of cell proliferation in vitro by MTT/MTS method (cell activity experiment); type: cell-based; conditions: AGS cells; MTT/MTS; 3 days of drug treatment; read-out: AGS IC50
Procedure, shortened: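 KRAS G12D AGS cells seeded at 1000 per well, compound added 24 h later, 0.5% final DMSO. Viability read after 3 days of treatment by MTT (solubilised in DMSO) or MTS, 4 h, absorbance 490 nm. IC50 from dose–response curves versus DMSO control.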

Row | pIC50 | SMILES
1 | 7.68 | C#Cc1c(F)ccc2cc(O)cc(-c3ccc4c(N5C[C@H]6CC[C@@H](C5)N6)c(F)c(OC[C@@]56CCCN5C[C@H](F)C6)nc4c3F)c12 [Example 335, 4-(4-((1R,5S)-3,8-diazabicyclo[3.2.1]octan-3-yl)-3,8-difluoro-2-(((2R,7aS)-2-fluorotetrahydro-1H-pyrrolizin-7a(5H)-yl)methoxy)quinolin-7-yl)-5-ethynyl-6-fluoronanhthalen-2-ol]
2 | 8.00 | CSc1c(F)ccc2cc(O)cc(-c3ccc4c(N5C[C@H]6CC[C@@H](C5)N6)nc(OC[C@@]56CCCN5C[C@H](F)C6)nc4c3F)c12 [Example 336, 4-(4-((1R,5S)-3,8-diazabicyclo[3.2.1]octan-3-yl)-8-fluoro-2-(((2R,7aS)-2-fluorotetrahvdro-1H-pyrrolizin-7a(5H)-yl)methoxy)quinazolin-7-yl)-6-fluoro-5-(methylthio)naphthalen-2-ol]

same assay, conditions: Homo sapiens, AGS, 72 h, AGS cells; MTT/MTS; 3 days of drug treatment; read-out: AGS IC50

Row | SMILES | pIC50
3 | C#Cc1c(F)ccc2cc(O)cc(-c3ncc4c(N5C[C@H]6CC[C@@H](C5)N6)nc(OC[C@@]56CCCN5C[C@H](F)C6)nc4c3OC3CC3)c12 [Example 334, 4-(4-((1R,5S)-3,8-diazabicyclo[3.2.1]octan-3-yl)-8-cyclopropoxy-2-(((2R,7aS)-2-fluorotetrahydro-1H-pyrrolizin-7a(5H)-yl)methoxy)pyrido[4,3-d]pyrimidin-7-yl)-5-ethynyl-6-fluoronaphthalen-2-ol] | 6.90
4 | C#Cc1nccc2cc(O)cc(-c3ncc4c(N5C[C@H]6CC[C@@H](C5)N6)nc(OC[C@@]56CCCN5C[C@H](F)C6)nc4c3F)c12 [Example 339, 8-(4-((1R,5S)-3,8-diazabicyclo[3.2.1]octan-3-yl)-8-fluoro-2-(((2R,7aS)-2-fluorotetrahydro-1H-pyrrolizin-7a(5H)-yl)methoxy)pyrido[4,3-d]pyrimidin-7-yl)-1-ethynylisoquinolin-6-ol] | 7.82
5 | CCc1nccc2cc(O)cc(-c3ncc4c(N5C[C@H]6CC[C@@H](C5)N6)nc(OC[C@@]56CCCN5C[C@H](F)C6)nc4c3F)c12 [Example 340, 8-(4-((1R,5S)-3,8-diazabicyclo[3.2.1]octan-3-yl)-8-fluoro-2-(((2R,7aS)-2-fluorotetrahydro-1H-pyrrolizin-7a(5H)-yl)methoxy)pyrido[4,3-d]pyrimidin-7-yl)-1-ethylisoquinolin-6-ol] | 7.70
6 | CSc1nccc2cc(O)cc(-c3ncc4c(N5C[C@H]6CC[C@@H](C5)N6)nc(OC[C@@]56CCCN5C[C@H](F)C6)nc4c3F)c12 [Example 341, 8-(4-((1R,5S)-3,8-diazabicyclo[3.2.1]octan-3-yl)-8-fluoro-2-(((2R,7aS)-2-fluorotetrahydro-1H-pyrrolizin-7a(5H)-yl)methoxy)pyrido[4,3-d]pyrimidin-7-yl)-1-(methylthio)isoquinolin-6-ol] | 7.60
7 | Cc1nccc2cc(O)cc(-c3ncc4c(N5C[C@H]6CC[C@@H](C5)N6)nc(OC[C@@]56CCCN5C[C@H](F)C6)nc4c3F)c12 [Example 343, 8-(4-((1R,5S)-3,8-diazabicyclo[3.2.1]octan-3-yl)-8-fluoro-2-(((2R,7aS)-2-fluorotetrahydro-1H-pyrrolizin-7a(5H)-yl)methoxy)pyrido[4,3-d]pyrimidin-7-yl)-1-methylisoquinolin-6-ol] | 7.77
8 | CCc1nccc2cc(O)cc(-c3ccc4c(N5C[C@H]6CC[C@@H](C5)N6)nc(OC[C@@]56CCCN5C[C@H](F)C6)nc4c3F)c12 [Example 344, 8-(4-((1R,5S)-3,8-diazabicyclo[3.2.1]octan-3-yl)-8-fluoro-2-(((2R,7aS)-2-fluorotetrahydro-1H-pyrrolizin-7a(5H)-yl)methoxy)quinazolin-7-yl)-1-ethylisoquinolin-6-ol] | 7.46
9 | CCc1csc2cc(O)cc(-c3ncc4c(N5C[C@H]6CC[C@@H](C5)N6)nc(OC[C@@]56CCCN5C[C@H](F)C6)nc4c3F)c12 [Example 348, 4-(4-((1R,5S)-3,8-diazabicyclo[3.2.1]octan-3-yl)-8-fluoro-2-(((2R,7aS)-2-fluorotetrahydro-1H-pyrrolizin-7a(5H)-yl)methoxy)pyrido[4,3-d]pyrimidin-7-yl)-3-ethylbenzo[b]thiophen-6-ol] | 7.07
10 | CCc1ccc2cc(O)cc(-c3ncc4c(N5C[C@H]6CC[C@@H](C5)N6)nc(OC[C@@]56CCCN5C[C@H](F)C6)nc4c3F)n12 [Example 351, 5-(4-((1R,5S)-3,8-diazabicyclo[3.2.1]octan-3-yl)-8-fluoro-2-(((2R,7aS)-2-fluorotetrahydro-1H-pyrrolizin-7a(5H)-yl)methoxy)pyrido[4,3-d]pyrimidin-7-yl)-3-ethylindolizin-7-ol] | 7.52
11 | CSC1CCc2cc(O)cc(-c3ncc4c(N5C[C@H]6CC[C@@H](C5)N6)nc(OC[C@@]56CCCN5C[C@H](F)C6)nc4c3F)c21 (stereo partly drawn) [Example 354, 7-(4-((1R,5S)-3,8-diazabicyclo[3.2.1]octan-3-yl)-8-fluoro-2-(((2R,7aS)-2-fluorotetrahydro-1H-pyrrolizin-7a(5H)-yl)methoxy)pyrido[4,3-d]pyrimidin-7-yl)-1-(methylthio)-2,3-dihydro-1H-inden-5-ol] | 7.60
12 | CCC1c2c(-c3ncc4c(N5C[C@H]6CC[C@@H](C5)N6)nc(OC[C@@]56CCCN5C[C@H](F)C6)nc4c3F)cc(O)cc2C2CC21 (stereo partly drawn) [Example 355, 5-(4-((1R,5S)-3,8-diazabicyclo[3.2.1]octan-3-yl)-8-fluoro-2-(((2R,7aS)-2-fluorotetrahydro-1H-pyrrolizin-7a(5H)-yl)methoxy)pyrido[4,3-d]pyrimidin-7-yl)-6-ethyl-1,1a,6,6a-tetrahydrocyclopropa[a]inden-3-ol] | 7.70
13 | CC1OCCc2cc(O)cc(-c3ncc4c(N5C[C@H]6CC[C@@H](C5)N6)nc(OC[C@@]56CCCN5C[C@H](F)C6)nc4c3F)c21 (stereo partly drawn) [Example 356, 8-(4-((1R,5S)-3,8-diazabicyclo[3.2.1]octan-3-yl)-8-fluoro-2-(((2R,7aS)-2-fluorotetrahydro-1H-pyrrolizin-7a(5H)-yl)methoxy)pyrido[4,3-d]pyrimidin-7-yl)-1-methylisochroman-6-ol] | 7.68
14 | CN1CCCc2cc(O)cc(-c3ncc4c(N5C[C@H]6CC[C@@H](C5)N6)nc(OC[C@@]56CCCN5C[C@H](F)C6)nc4c3F)c21 [Example 359, 8-(4-((1R,5S)-3,8-diazabicyclo[3.2.1]octan-3-yl)-8-fluoro-2-(((2R,7aS)-2-fluorotetrahydro-1H-pyrrolizin-7a(5H)-yl)methoxy)pyrido[4,3-d]pyrimidin-7-yl)-1-methyl-1,2,3,4-tetrahydroquinolin-6-ol] | 7.46
15 | CSc1c(F)ccc2cc(O)cc(-c3ncc4c(N5C[C@H]6CC[C@@H](C5)N6)nc(OC[C@@]56CCCN5C[C@H](F)C6)nc4c3F)c12 [Example 360, 4-(4-((1R,5S)-3,8-diazabicyclo[3.2.1]octan-3-yl)-8-fluoro-2-(((2R,7aS)-2-fluorotetrahydro-1H-pyrrolizin-7a(5H)-yl)methoxy)pyrido[4,3-d]pyrimidin-7-yl)-6-fluoro-5-(methylthio)naphthalen-2-ol] | 8.00
16 | Oc1cc(C#Cc2ccc3c(N4C[C@H]5CC[C@@H](C4)N5)nc(OC[C@@]45CCCN4C[C@H](F)C5)nc3c2F)c2ccccc2c1 [Example 363, 4-((4-((1R,5S)-3,8-diazabicyclo[3.2.1]octan-3-yl)-8-fluoro-2-(((2R,7aS)-2-fluorotetrahydro-1H-pyrrolizin-7a(5H)-yl)methoxy)quinazolin-7-yl)ethynyl)naphthalen-2-ol] | 6.12
17 | Oc1cccc2cccc(C#Cc3ccc4c(N5C[C@H]6CC[C@@H](C5)N6)nc(OC[C@@]56CCCN5C[C@H](F)C6)nc4c3F)c12 [Example 364, 8-((4-((1R,5S)-3,8-diazabicyclo[3.2.1]octan-3-yl)-8-fluoro-2-(((2R,7aS)-2-fluorotetrahydro-1H-pyrrolizin-7a(5H)-yl)methoxy)quinazolin-7-yl)ethynyl)naphthalen-1-ol] | 6.09
18 | Oc1ccc2ccccc2c1C#Cc1ccc2c(N3C[C@H]4CC[C@@H](C3)N4)nc(OC[C@@]34CCCN3C[C@H](F)C4)nc2c1F [Example 365, 1-((4-((1R,5S)-3,8-diazabicyclo[3.2.1]octan-3-yl)-8-fluoro-2-(((2R,7aS)-2-fluorotetrahydro-1H-pyrrolizin-7a(5H)-yl)methoxy)quinazolin-7-yl)ethynyl)naphthalen-2-ol] | 5.44
19 | Oc1cc(O)c2c(C#Cc3ccc4c(N5C[C@H]6CC[C@@H](C5)N6)nc(OC[C@@]56CCCN5C[C@H](F)C6)nc4c3F)c(F)ccc2c1 [Example 366, 8-((4-((1R,5S)-3,8-diazabicyclo[3.2.1]octan-3-yl)-8-fluoro-2-(((2R,7aS)-2-fluorotetrahydro-1H-pyrrolizin-7a(5H)-yl)methoxy)quinazolin-7-yl)ethynyl)-7-fluoronaphthalene-1,3-diol] | 5.68
20 | Oc1ccc2c(C#Cc3ccc4c(N5C[C@H]6CC[C@@H](C5)N6)nc(OC[C@@]56CCCN5C[C@H](F)C6)nc4c3F)c(F)ccc2c1 [Example 367, 5-((4-((1R,5S)-3,8-diazabicyclo[3.2.1]octan-3-yl)-8-fluoro-2-(((2R,7aS)-2-fluorotetrahydro-1H-pyrrolizin-7a(5H)-yl)methoxy)quinazolin-7-yl)ethynyl)-6-fluoronaphthalen-2-ol] | 6.71
21 | Oc1ccc2c(C#Cc3ncc4c(N5C[C@H]6CC[C@@H](C5)N6)nc(OC[C@@]56CCCN5C[C@H](F)C6)nc4c3F)c(F)ccc2c1 [Example 368, 5-((4-((1R,5S)-3,8-diazabicyclo[3.2.1]octan-3-yl)-8-fluoro-2-(((2R,7aS)-2-fluorotetrahydro-1H-pyrrolizin-7a(5H)-yl)methoxy)pyrido[4,3-d]pyrimidin-7-yl)ethynyl)-6-fluoronaphthalen-2-ol] | 7.26
22 | C#Cc1cc2c(N3C[C@H]4CC[C@@H](C3)N4)nc(OC[C@@]34CCCN3C[C@H](F)C4)nc2c(F)c1-c1cc(O)cc2ccccc12 [Example 369, 4-(4-((1R,5S)-3,8-diazabicyclo[3.2.1]octan-3-yl)-6-ethynyl-8-fluoro-2-(((2R,7aS)-2-fluorotetrahydro-1H-pyrrolizin-7a(5H)-yl)methoxy)quinazolin-7-yl)naphthalen-2-ol] | 6.74

From patent US20240300980A1, “HETEROCYCLIC COMPOUNDS AS KRAS INHIBITOR, AND PREPARATION THEREFOR AND USE THEREOF IN TREATMENT” (SHANGHAI KECHOW PHARMA, INC., priority 2021, published 2024)
